In patent publication US20070108405A1, “Compositions and methods for delivery of biologically active agents” (FH FAULDING & CO., LTD., priority 2003, published 2007):
Marks after values point to notes of the source that are not given here.

Experiment: Solubility of active agents in surfactants (saturation, HPLC)
Format: physicochemical
Settings: 40° C., mean of three ± SD unless a (single) or b (duplicate); for Solubility Irinotecan HCl: irinotecan HCl in the surfactant; for Solubility Irinotecan base: irinotecan base in the surfactant; for Solubility Paclitaxel: paclitaxel in the surfactant
Description: In order for the surfactants to be useful as components of the delivery system, it is important to be able to dissolve biologically active agents in the surfactant or in the water. Table 3 illustrates that the surfactants are useful for dissolving three pharmaceutical compounds that may potentially be delivered using the invention. Solubility was determined by saturation of the surfactant with solid drug at 40° C. until saturation is achieved. Drug level was determined by reverse phase HPLC. Values given are the mean of three separate samples±standard deviation, unless denoted otherwise.

| Solubility Irinotecan HCl | Solubility Irinotecan base | Solubility Paclitaxel | SMILES |
| --- | --- | --- | --- |
| 0.43 ± 0.20 mg/g | 0.35 ± 0.001 mg/g | 0.87 ± 0.18 mg/g | CC(C)CCCC(C)CCCC(C)CCCC(C)CCN(CCO)C(N)=O (centres unmarked) [1-(3,7,11,15-tetramethyl-hexadecyl)-1-(2-hydroxyethyl)urea] |
| 4.36 ± 0.30 mg/g | 0.94 ± 0.02 mg/g | 5.67 ± 1.64 mg/g | CC(C)CCCC(C)CCCC(C)CCCC(C)CCNC(=O)NCCO (centres unmarked) [1-(3,7,11,15-tetramethyl-hexadecyl)-3-(2-hydroxyethyl)urea] |
| 4.33 ± 0.37 mg/g | 64.54 ± 4.65 mg/g | 4.83 ± 0.83 mg/g | CC(C)CCCC(C)CCCC(C)CCCC(C)CCOC(=O)C(O)CO (centres unmarked) [2,3-Dihydroxypropionic acid 3,7,11,15-tetramethyl-hexadecyl ester] |
| 33.83 ± 5.98 mg/g | 3.76 ± 0.45 mg/g | 34.65 ± 2.34 mg/g | CC(C)CCCC(C)CCCC(C)CCNC(N)=O (centres unmarked) [3,7,11-Trimethyl-dodecyl urea] |
| 4.58^a mg/g | 3.92^b mg/g | 7.25^b mg/g | CC(C)CCCC(C)CCCC(C)CCOC(=O)C(O)CO (centres unmarked) [2,3-Dihydroxypropionic acid 3,7,11-trimethyl-dodecyl ester] |
| 1.63 ± 0.64 mg/g | 0.44 ± 0.11 mg/g | 7.85 ± 1.93 mg/g | CC(C)CCCC(C)CCCC(C)CCCC(C)CCNC(N)=O (centres unmarked) [3,7,11,15-Tetramethyl-hexadecyl urea] |
| 9.69 ± 0.74 mg/g | 35.66 ± 1.26 mg/g | 8.43 ± 0.23 mg/g | CCCCCCCCC=CCCCCCCCCOC(=O)C(O)CO (centres unmarked) [2,3-Dihydroxypropionic acid octadec-9-enyl ester] |
| – | 6.22^a mg/g | 6.66^a mg/g | CC(C)CCCC(C)CCCC(C)CCCC(C)CC(=O)OCC(O)CO (centres unmarked) [3,7,11,15-tetramethyl-hexadecanoic acid 1-glycerol ester] |
